One compound from the NIST ThermoML archive (doi:10.1016/j.jct.2016.11.029) can be followed below.

± gives the expanded uncertainty stated by the source.

The conditions of data set [1]: Crystal; DTA.
A short description of data set [2]: Molar enthalpy of transition or fusion. Particulars: Crystal; DSC.

For `Clc1ccc2c(c1)Nc1ccccc1S2` [2-chlorophenothiazine], in data set [1], the Normal melting temperature is 199.80 ± 1.1 °C. Moreover, in data set [2], the “Molar enthalpy of transition or fusion” value turned out to be 5.16 ± 0.22 kcal/mol.
